Measured values reported in publication PMC8692498, “Synthesis and multifaceted pharmacological activity of novel quinazoline NHE-1 inhibitors” (Scientific Reports, 2021).
Entries after “also recorded” stand apart in the source; their conditions may differ.

Columns and labels:
NHE-1 [1] = target: T1, NHE-1 (Oryctolagus cuniculus, UniProt P23791); test: NHE-1 inhibition assay on rabbit platelets (platelet shape change after acidification with sodium propionate, laser aggregometer); assay type: cell-based; conditions: for inhibition at 0.01 µM: 10 nM, rabbit platelet-rich plasma, decimal commas, read-out: NHE-1 inhibition at 10 nM, m ± SD, n = 6 (%); for NHE-1 inhibitory activity (in words): compared with reference drugs
T1 construct: endogenous in cells; host or cells: rabbit platelets in platelet-rich plasma (male rabbits)
T1 sequence (P23791 whole entry): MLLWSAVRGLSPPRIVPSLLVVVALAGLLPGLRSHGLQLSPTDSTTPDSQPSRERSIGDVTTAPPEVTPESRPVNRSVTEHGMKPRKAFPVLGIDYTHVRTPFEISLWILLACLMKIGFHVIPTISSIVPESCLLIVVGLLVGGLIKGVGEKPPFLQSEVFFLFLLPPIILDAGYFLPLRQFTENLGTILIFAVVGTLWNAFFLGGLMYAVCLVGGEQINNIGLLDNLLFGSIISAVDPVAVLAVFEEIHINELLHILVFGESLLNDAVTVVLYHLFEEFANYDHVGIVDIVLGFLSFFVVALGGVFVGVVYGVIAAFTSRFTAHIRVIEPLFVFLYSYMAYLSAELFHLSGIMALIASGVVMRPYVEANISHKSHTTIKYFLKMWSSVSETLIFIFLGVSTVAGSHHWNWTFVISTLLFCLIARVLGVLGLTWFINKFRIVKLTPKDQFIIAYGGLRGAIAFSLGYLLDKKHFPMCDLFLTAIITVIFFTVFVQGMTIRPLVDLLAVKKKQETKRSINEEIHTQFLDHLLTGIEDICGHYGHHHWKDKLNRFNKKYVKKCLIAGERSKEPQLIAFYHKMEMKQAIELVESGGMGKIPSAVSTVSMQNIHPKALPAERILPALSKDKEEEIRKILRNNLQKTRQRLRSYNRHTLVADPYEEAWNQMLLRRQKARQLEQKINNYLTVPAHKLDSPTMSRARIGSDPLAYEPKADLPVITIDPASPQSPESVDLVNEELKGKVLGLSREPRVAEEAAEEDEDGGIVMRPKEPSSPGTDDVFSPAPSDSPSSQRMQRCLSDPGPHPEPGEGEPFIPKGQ
Experimental: Evaluation of NHE-1 inhibition was carried out on rabbit platelets by the known method[39],[40]. The experiments were carried out on 15 male rabbits weighing 3.0-4.0 kg. Platelet-rich plasma (PRP) was obtained by centrifuging blood with 3.8% sodium citrate (1:10) at 1000 rpm for 12 min (Multi centrifuge CM 6M, Latvia). Platelet shapeshifting due to acidification was followed with a laser aggregometer BIOLA-220 LA (Russia). Test compounds (10 μl, 10 nM final concentration) were added to 200 μl of PRP 5 min in a cuvette before the addition of sodium propionate solution, incubated with constant stirring using a magnetic stirrer (800 rpm, 37 °C). To control samples for NHE-1 activation, a buffer solution containing sodium propionate was added to 200 μL of PRP (600 μL, 135 mM sodium propionate, 20 mM HEPES, 1 mM CaCI2, 1 mM MgCI2, 10 mM glucose; pH 6.7). The change in light transmission at pH 7.4, 37 °C was monitored in a Krebs solution (600 μL, 120 mM NaCl, 4.8 mM KCl, 1.2 mM KH2PO4, 2.5 mM MgSO4, 25 mM NaHCO3, 2.6 mM CaCl2, 5.4 mM glucose; pH 7.4). Test compounds were added to a final concentration of 10 nM to the cuvette into 200 μl of PRP 5 min before adding the sodium propionate solution, incubated with constant stirring using a magnetic stirrer (800 rpm, 37 °C). NHE-1 inhibitors zoniporide, rimeporide, amiloride were used as reference drugs. Assays were run in 6 independent series.

rabbit platelets = test: ADP-induced platelet aggregation assay in rabbit platelet-rich plasma; assay type: cell-based; conditions: 100 μM, ADP 5 μM
Experimental: (§1) Functional activity of platelets was determined on a two-channel laser analyzer of platelet aggregation "BIOLA-220 LA" (Russia) as described previously. The experiments were carried out on 6 male rabbits weighing 3.5–4 kg. To prepare platelet-rich plasma (PRP) venous blood was taken from the ear marginal vein of a rabbit, stabilized with a 3.8% sodium citrate solution in a ratio of 9:1 and centrifuged for 10 min at 1500 rpm. PRP (300 μL) and a solution of the test compound at a concentration of 100 μM were sequentially introduced into the cell of the aggregometer. The samples were incubated in thermostated cells of the aggregometer at 37 °C for 5 min. To induce aggregation adenosine-5-diphosphoric acid (ADP, Sigma, USA) at a final concentration of 5 μM, was added to the cuvette. Acetylsalicylic acid (Shandong Xinhua Pharmaceutical Co., Ltd., China) was used as a reference drug. Experiments were run in 5 independent replicates.

NHE-1 [2] = target: T1, NHE-1; test: NHE-1 inhibition assay on rabbit platelets (platelet shape change after acidification with sodium propionate, laser aggregometer); assay type: cell-based
[3] = test system: primary peritoneal macrophages of C57BL/6J mice; test: Nitric oxide synthesis (nitrite, Griess reagent) in LPS-stimulated peritoneal macrophages; assay type: cell-based; conditions: 100 μM
Experimental: (§2) Peritoneal macrophages (PM) were isolated from the peritoneal exudate of 30 male C57bl/6j mice. To accumulate PM, 1 ml of 3% peptone solution was injected intraperitoneally. After 3 days the mice were euthanized by cervical dislocation. Cells of peritoneal exudate were obtained by aseptically washing the abdominal cavity with 5 ml of sterile Hanks’s solution (+ 4-6 °C) without calcium and magnesium ions. The total number and viability of cells were assessed in a Goryaev counting chamber (Russia) with a 0.4% trypan blue staining (Sigma-Aldrich, USA). The cell concentration was adjusted to 1.0×10^6 cells/ml in DMEM (Gibco) supplemented with 2 mM L-glutamine (Gibco), 10% heat-inactivated fetal bovine serum (BioClot, Germany), 100 U/ml penicillin and […] streptomycin (Gibco) and plated 200 μl/well in 96-well transparent plates (SPL Life Sciences Co., Ltd., Korea). It was left for 2 h at 37°C in a humidified atmosphere with 5% CO2, after which the wells were washed to remove non-adherent cells. After 24 hours of incubation, 20 μl of the supernatant was removed and 20 μl of solutions of test compounds were added 30 min before E. coli O127:B8 LPS (100 ng/ml final concentration). Experiments were run in 3 independent replicates.
The accumulation of nitrite anion (a stable end product of NO decomposition produced by iNOS) in supernatants was determined using a standard Griess reagent. Briefly, 50 μl of supernatants collected 22 hours after incubation of PM with test and control compounds were mixed with 50 μl of 1% sulfonamide in 2.5% H3PO4 and 50 μl of 0.1% N-(1-naphthyl) ethylenediamine in 2,5% H3PO4. After incubation at 23 °C for 10 min in an orbital shaker, the optical density was determined at a wavelength of 550 nm with a microplate reader Infinite M200 PRO (Tecan, Austria).

[4] = test system: primary peritoneal macrophages of C57BL/6J mice; test: Cytotoxicity study (LDH activity in the medium) in peritoneal macrophages; assay type: cell-based; conditions: 100 μM, peritoneal macrophages
Experimental: as §2
(§3) The activity of lactate dehydrogenase (LDH) in a cell culture medium served as a marker of membrane permeability and cell death. Aliquotes of supernatants were taken after 24 h of inoculation with test compounds, mixed with 250 μl of […] NADH solution in 54 mM phosphate buffered saline (pH 7.5). Then, 25 μl of a 6.48 mM pyruvate solution was added to the mixture. The optical density was followed at a wavelength of 340 nm for 20 min. Conversion of optical density into cell viability was carried out according to a standard curve (DMSO-treated cells as 100% and 0.01% Triton X-100-treated cells as 0% viable cells).

intraocular pressure = test: Intraocular pressure studies in outbred rats (TonoVet); assay type: in vivo
Experimental: The experiments were carried out on 75 adult outbred rats of both sexes, which were kept in standard cages at a temperature of 25 °C and a standard light regime. Animals were randomly assigned to the control and experimental groups (n = 5). Before the start of the experiment, the rats had free access to food and water. Intraocular pressure (IOP) was measured with a TonoVet device (Finland)[44] which measures IOP with a short touch of a small disposable tip in the center of the cornea, no corneal anesthesia is required. The study was carried out according to the published method. One drop (50 μl) of a test 0.4% solution of the compound was instilled into the right eye, and deionized water was added to the left eye. IOP was measured in both eyes. The left eye, in turn, serves to assess the possible systemic exposure of the test compounds. […] IOP-lowering activity was assessed as the maximum decrease in IOP from the initial values. At 9:00 AM, baseline IOP was measured in animals of all groups. Experiments were run in 5 independent replicates.

[5] = Solubility under the conditions of the platelet aggregation assay; assay type: physicochemical; conditions: antiplatelet assay
Experimental: Test compounds were dissolved in 99% DMSO (stock concentration 40 mM) and stored at –25 °C. If sediment or opalescence was detected, 5% Tween 20 (Merck) was added. Serial dilutions were prepared ex tempore in a media suitable for the particular study. Final concentration in samples: DMSO <0.25%, Tween 20 <0.025% (were added to control samples in equal concentrations).
as §1

[6] = test system: primary peritoneal macrophages of C57BL/6J mice; test: Interleukin-6 secretion (ELISA) from LPS-stimulated peritoneal macrophages; assay type: cell-based; conditions: for secretion of interleukin 6: LPS-stimulated macrophages, screening (Fig. 4)
Experimental: as §2
Cell supernatant was collected and centrifuged at 1000 g for 20 min in a 2-16PK Sigma centrifuge (Germany). The concentration of IL-6 was determined by ELISA using a commercial kit (Cloud-clone ELISA kit) with a microplate reader Infinite M200 PRO (Tecan, Austria).

[7] = Cytotoxicity study (LDH activity in the medium) in peritoneal macrophages; assay type: cell-based; conditions: male, C57BL/6J, mouse, primary peritoneal macrophages; murine peritoneal macrophages, LDH, unit printed in Cyrillic
Experimental: as §2, §3

Compound | inhibition at 0.01 µM (NHE-1 [1]) | IC50 (NHE-1 [2]) | melting point | NHE-1 inhibitory activity (in words) (NHE-1 [1]) | further results
[H]/N=C(\N)NC(=O)c1cc(S(C)(=O)=O)c(S(C)(=O)=O)cc1C [Rimeporide, rimeporide, reference compound] | 34.2% | – | – | – | –
C=CCn1c(=O)n(C(C)c2nnc(N)[nH]2)c(=O)c2ccccc21 (centres unmarked) [Compound 3h, 3-[1-(5-Amino-4H-1,2,4-triazol-3-yl)ethyl]-1-(prop-2-en-1-yl)quinazoline-2,4(1H,3H)-dione] | 33.2% | – | – | comparable to the reference drug rimeporide | antiplatelet activity versus acetylsalicylic acid (rabbit platelets): exceeded the activity of the reference drug, acetylsalicylic acid
N=C(N)NC(=O)c1cnn(-c2cccc3ncccc23)c1C1CC1 [Zoniporide, zoniporide, reference compound] | 48% | 7.3 nM | – | – | –
CC(c1nnc(N)[nH]1)n1c(=O)c2ccccc2n(C)c1=O (centres unmarked) (hydrate or solvate) [Compound 3f, 3-[1-(5-Amino-4H-1,2,4-triazol-3-yl)ethyl]-1-methylquinazoline-2,4(1H,3H)-dione] | – | – | 91 to 93 °C | – | –
CC(c1nnc(N)[nH]1)n1c(=O)c2ccccc2n(C)c1=O (centres unmarked) [Compound 3f, 3-[1-(5-Amino-4H-1,2,4-triazol-3-yl)ethyl]-1-methylquinazoline-2,4(1H,3H)-dione] | 29.8% | – | – | – | antiplatelet activity versus acetylsalicylic acid (rabbit platelets): exceeded the activity of the reference drug, acetylsalicylic acid
Nc1nnc(Cn2cnc3ccccc3c2=O)[nH]1 [Compound 6a, 3-[(5-Amino-4H-1,2,4-triazol-3-yl)methyl]quinazolin-4(3H)-one] | 54.1% | 6.7 nM | – | more potent and comparable to zoniporide | solubility under assay conditions [5]: insoluble under assay conditions
C=CCn1c(=O)n(Cc2nnc(N)[nH]2)c(=O)c2ccccc21 [Compound 3g, 3-[(5-Amino-4H-1,2,4-triazol-3-yl)methyl]-1-(prop-2-en-1-yl)quinazoline-2,4(1H,3H)-dione] | 10.4% | – | 275 to 277 °C | – | –
C=CCn1c(=O)n(C(C)c2nnc(N)[nH]2)c(=O)c2ccccc21 (centres unmarked) (hydrate or solvate) [Compound 3h, 3-[1-(5-Amino-4H-1,2,4-triazol-3-yl)ethyl]-1-(prop-2-en-1-yl)quinazoline-2,4(1H,3H)-dione] | – | – | 116 to 118 °C | – | –
N=C(N)NC(=O)c1nc(Cl)c(N)nc1N [Amiloride, amiloride, reference compound] | 16.4% | 1230 nM | – | – | IC50 ([6]; Mus musculus, Peritoneal macrophage, LPS-stimulated murine macrophages, unit printed in Cyrillic, read-out: IC50 of IL-6 secretion): 9520 nM; CC50 at 24 h [7]: > 100000 nM

The next lines start with results.

inhibition at 0.01 µM (NHE-1 [1]) | IC50 (NHE-1 [2]) | melting point | Compound | NHE-1 inhibitory activity (in words) (NHE-1 [1]) | further results
33.2% | 961 nM | – | Cn1c(=O)n(CC(=O)NC(=N)N)c(=O)c2cc(Br)ccc21 [Compound 3d, 2-(6-Bromo-1-methyl-2,4-dioxo-1,4-dihydroquinazolin-3(2H)-yl)-N-carbamimidoylacetamide] | comparable to the reference drug rimeporide | inhibition of the synthesis of nitric oxide [3]: statistically significantly inhibit; effect on cell viability [4]: absence of a statistically significant effect on cell viability; IOP-lowering effect size (intraocular pressure; compared with zoniporide and timolol): comparable to zoniporide and superior to timolol; IOP-lowering activity (intraocular pressure; one drop (50 μl) of 0.4% solution instilled): statistically significant activity; also recorded: markedly reduce intraocular pressure
33.7% | 293 nM | 266 to 269 °C | Cn1c(=O)n(CC(=O)NC(=N)N)c(=O)c2ccccc21 [Compound 3a, N-Carbamimidoyl-2-(1-methyl-2,4-dioxo-1,4-dihydroquinazolin-3(2H)-yl)acetamide] | comparable to the reference drug rimeporide | antiplatelet activity versus acetylsalicylic acid (rabbit platelets): exceeded the activity of the reference drug, acetylsalicylic acid
7.3% | – | 180 to 183 °C | N=C(N)NC(=O)Cn1c(=O)c2ccccc2n(Cc2ccccc2)c1=O [Compound 3c, 2-(1-Benzyl-2,4-dioxo-1,4-dihydroquinazolin-3(2H)-yl)-N-carbamimidoylacetamide] | – | secretion of interleukin 6 [6]: suppressed
1.49% | – | 216 to 219 °C | CC(C(=O)NC(=N)N)n1c(=O)c2ccccc2n(C)c1=O (centres unmarked) [Compound 3b, N-Carbamimidoyl-2-(1-methyl-2,4-dioxo-1,4-dihydroquinazolin-3(2H)-yl)propanamide] | – | secretion of interleukin 6 [6]: suppressed
